Converted amounts (≈) assume the structure as drawn. Like-named read-outs stand apart in the source and are kept apart here. Residues, ends and D or L forms follow the SMILES beside them. No end group written: not given here.
What was measured:
[1] = test system: S. saprophyticus (ATCC 15305); test: 96-well plate screening of surface conjugated AMPs for biofilm inhibition; assay type: cell-based; details: AMP tethered on BA coating, polypropylene 96-well plate, 24 h, vs uncoated pp
Method: (§1) Screening and Identification of Surface Conjugated AMPs with Anti-Biofilm Activity on a 96-Well Plate Bioluminescence-tagged bacterial strains used in this study included S. aureus (Xen36), P. aeruginosa (PAO1.lux), E. coli (E38.lux), and S. saprophyticus (ATCC 15305). Bacteria were cultured in LB, with shaking at 250 rpm, at 37° C. Bacterial growth was monitored using a spectrophotometer at the optical density of 600 nm (OD600). S. aureus Xen36 was purchased from PerkinElmer Inc.™ while P. aeruginosa PAO1.lux and E. coli E38.lux were generated by conjugating in plasmids that constitutively-expressed lux reporter genes^[40]. The biofilm inhibitory activity of AMPs conjugated onto coated polypropylene surfaces were evaluated in a static microtitre plate assay as previously described with some modifications^[41]. For all experiments, 96-well Costar™ polypropylene plates (Corning™) were used. An overnight culture of selected bacterial strains in LB was diluted to an OD600=0.01 in TSB or basal medium 2 (BM2) supplemented with 0.1% or 0.4% glucose and 0.5 mM MgSO4, (the biofilm growth medium for different bacteria is listed in TABLE 1).
(§2) For inhibition experiments, 100 μL of the diluted overnight culture was added to each well in the plate coated with control coating and AMP coating, respectively. After overnight growth under static condition at 37° C., planktonic cells were removed, adhered biomass rinsed three times with distilled water and subsequently the remaining adhered total biomass was quantified by measuring the luminescence (Total white light) using the Synergy H1™ multimode microtitre plate reader (BioTek™). The remaining adhered S. saprophyticus biomass was quantified using the crystal violet (CV) staining. Briefly, each well was added and incubated with 125 μL of 0.1% (v/v) CV solution for 30 minutes at room temperature with moderate shaking. Then, CV was discarded, and each well was rinsed three times with distilled water. The remaining CV stain was resuspended in 150 μL of 70% ethanol for 30 minutes at room temperature with moderate shaking and then quantified by measuring OD59, using the Synergy H1™ multimode microplate plate reader (BioTek™). The percent biofilm inhibition was calculated in relation to the amount of biofilm grown in the absence of the coating (defined as 100%) and the media sterility control (defined as 0% growth). The experiment was repeated 3 times with 3 technical replicates per biological replicate.

S. aureus (Xen36) = test: as above; assay type: cell-based; details: AMP tethered on BA coating, polypropylene 96-well plate, vs uncoated pp
Method: as §1, §2

S. aureus = test system: S. aureus
From the text: (§3) Ultra-high molecular weight poly(N,N-dimethylacrylamide) (uhPDMA) and high molecular weight poly(N,N-dimethylacrylamide) (hPDMA) were synthesized by atom transfer radical polymerization 391. N-(3-Aminopropyl) methacrylamide hydrochloride (APMA) (98%) was purchased from Polysciences™, USA and was used as supplied. All other reagents including 1, 1, 4, 7, 10, 10-hexamethyl triethylene tetramine (HMTETA) (97%), Tris[2-(dimethylamino)ethyl]amine (Me6TREN) 97%, methyl 2-chloropropionate (97%), CuCl (99%), CuCl2 (99%), 1-thioglycerol (97%) were purchased from Sigma-Aldrich™ (Oakville, ON). A single-side-polished silicon wafer (University Wafer™, Boston, MA) deposited with titanium was prepared by e-beam evaporation of titanium. The process was progressed in a home-assembled Evaporator 2000™ system equipped with a quartz crystal microbalance to monitor the film thickness and a cryo pump to reach high-vacuum (10^−7-10^−6 Torr) condition. After deposition, the substrates were washed with Milli-Q water™, dried via a nitrogen gun, and stored for further usage. SurFlash™I.V. Catheter Cat. #SR*FF1451, #SR*FF2419 (14 Gauge and 24 Gauge) made of polyurethane (PU), were purchased from Terumo™. […] Pure products were finally characterized by analytical reverse phase high performance liquid chromatography (RP-HPLC) and liquid chromatography-mass spectrometry (LC-MS). The broth microdilution method with minor modifications for cationic peptides was used for measuring the MICs of peptides.

P. aeruginosa = test system: P. aeruginosa
From the text: as §3

E. coli = test system: E. coli
From the text: as §3

S. saprophyticus = test system: S. saprophyticus
From the text: as §3

P. aeruginosa (PAO1.lux) = test: 96-well plate screening of surface conjugated AMPs for biofilm inhibition; assay type: cell-based; details: AMP tethered on BA coating, polypropylene 96-well plate, vs uncoated pp
Method: as §1, §2

E. coli (E38.lux) = test: as above; assay type: cell-based; details: AMP tethered on BA coating, polypropylene 96-well plate, vs uncoated pp
Method: as §1, §2

S. epidermidis = test: Antimicrobial activity of BA-AMPs coating against planktonic bacteria; assay type: cell-based; details: MHB medium, 24 h, coated PP wells
Method: The uhPDMA was prepared at a concentration of 36 mg mL^−1 in sodium acetate buffer (50 mM, pH=5). Dopamine was freshly prepared at a concentration of 12 mg mL^−1 in sodium acetate buffer (50 mM, pH=5) before each experiment. Sodium periodate (NaIO4) was freshly prepared at a concentration of 28 mg mL-1 in sodium acetate buffer (50 mm, pH=5). The dopamine solution was then mixed with uhPDMA solution with a volume ratio of 1:5 (dopamine:uhPDMA). Sodium periodate solution was then added to generate a final concentration of uhPDMA at 30 mg mL^−1, dopamine at 2 mg mL^−1, and NaIO4 at 0.9 mg mL^−1. Mixed solution (200 μL) was added into the wells of 96-well polypropylene plate. The plate was placed onto a rocking platform with shaking at 50 rpm for 2 hr. The coated plate was then rinsed by Milli-Q™ water and dried for further characterization. Peptide solutions (200 μL, 0.25 mg/mL in 10 mM phosphate buffer, pH ˜8) were added into the wells and incubated for 24 h. The peptide-conjugated plate were rinsed with Milli-Q™ water thoroughly and dried under argon flow. […] After 24 hrs growth under shaking condition at room temperature, bacteria culture (100 μL) was transferred to sterile clear polystyrene plate and the optical density was read using UV-vis spectrometer at wavelength 595 nm. […]

Compound | reduction of biofilm formation [1] [%] | reduction of biofilm formation (S. aureus (Xen36)) [%] | MIC S. aureus (S. aureus) [µg/mL] | MIC P. aeruginosa (P. aeruginosa) [µg/mL] | MIC E. coli (E. coli) [µg/mL] | MIC S. saprophyticus (S. saprophyticus) [µg/mL] | reduction of biofilm formation (P. aeruginosa (PAO1.lux)) [%] | reduction of biofilm formation (E. coli (E38.lux)) [%] | killing of planktonic S. epidermidis (S. epidermidis) | MIC S. aureus (S. aureus; soluble peptide) [µg/mL] | MIC P. aeruginosa (P. aeruginosa; soluble peptide) [µg/mL] | MIC E. coli (E. coli; soluble peptide) [µg/mL] | MIC S. saprophyticus (S. saprophyticus; soluble peptide) [µg/mL]
CC[C@@H](C)[C@@H](NC(=O)[C@@H](C)NC(=O)[C@@H](CCCNC(=N)N)NC(=O)[C@@H](Cc1c[nH]c2ccccc12)NC(=O)[C@@H](CCC(N)=O)NC(=O)[C@H](N)C(C)C)C(=O)N[C@H](CCCNC(=N)N)C(=O)N[C@@H](C(=O)N[C@H](CCCNC(=N)N)C(=O)N[C@@H](C(=O)N[C@@H](C(=O)N[C@H](CCCNC(=N)N)C(N)=O)[C@H](C)CC)C(C)C)C(C)C [DJK5, vqwrairvrvir] (HELM PEPTIDE1{[dV].[dQ].[dW].[dR].[dA].[dI].[dR].[dV].[dR].[dV].[dI].[dR].[am]}$$$$V2.0; N-terminus assumed) | 83.4 | 90.5 | 16 (≈ 10.3 µM) | 16 (≈ 10.3 µM) | 1.6 (≈ 1.03 µM) | 2 (≈ 1.29 µM) | – | – | – | – | – | – | –
CC[C@@H](C)[C@@H](NC(=O)[C@@H](C)NC(=O)[C@@H](CCCNC(=N)N)NC(=O)[C@@H](Cc1c[nH]c2ccccc12)NC(=O)[C@@H](CCC(N)=O)NC(=O)[C@H](N)C(C)C)C(=O)N[C@H](CCCNC(=N)N)C(=O)N[C@@H](C(=O)N[C@H](CCCNC(=N)N)C(=O)N[C@@H](C(=O)N[C@@H](C(=O)N[C@H](CCCNC(=N)N)C(=O)N[C@H](CS)C(N)=O)[C@H](C)CC)C(C)C)C(C)C [DJK5C, vqwrairvrvirc-NH2] (HELM PEPTIDE1{[dV].[dQ].[dW].[dR].[dA].[dI].[dR].[dV].[dR].[dV].[dI].[dR].[dC].[am]}$$$$V2.0; N-terminus assumed) | ~100 | 95.1 | 16 (≈ 9.67 µM) | 16 (≈ 9.67 µM) | 4 (≈ 2.42 µM) | 2 (≈ 1.21 µM) | 99.1 | – | – | – | – | – | –
CC[C@H](C)[C@H](NC(=O)[C@H](CCCNC(=N)N)NC(=O)[C@H](Cc1c[nH]c2ccccc12)NC(=O)[C@H](CCCNC(=N)N)NC(=O)[C@@H](N)CCCCN)C(=O)N[C@@H](CCCNC(=N)N)C(=O)N[C@H](C(=O)N[C@@H](CCCNC(=N)N)C(=O)N[C@H](C(=O)N[C@H](C(=O)N[C@@H](CCCNC(=N)N)C(=O)N[C@@H](CCCCN)C(=O)NCCC(=O)NCCC(=O)N[C@@H](CS)C(N)=O)[C@@H](C)CC)C(C)C)C(C)C [Tet20LC, KRWRIRVRVIRK-bA-bA-C—NH2] (HELM PEPTIDE1{K.R.W.R.I.R.V.R.V.I.R.K.[bAla].[bAla].C.[am]}$$$$V2.0; N-terminus assumed) | ~100 | 100 | 64 (≈ 33.5 µM) | 16 (≈ 8.38 µM) | 4 (≈ 2.09 µM) | 2 (≈ 1.05 µM) | 100 | – | – | – | – | – | –
ILVRWIRWRIQWC-NH2 [3002C, ILVRWIRWRIQWC-NH2] | – | 93.6 | 32 | 128 | 16 | 8 | 32.4 | – | – | – | – | – | –
KRWRIRVRVIRKC-NH2 [Tet20C, KRWRIRVRVIRKC-NH2] | ~100 | 98.8 | 64 | 8 | 4 | 2 | 99.6 | – | – | – | – | – | –
RRWRIVVIRVRRC-NH2 [E6, RRWRIVVIRVRRC-NH2] | – | 93 | 64 | 32 | 8 | 4 | 98.2 | 91.8 | complete killing | – | – | – | –
VRLIVAVRIWRR-NH2 [IDR-1018, VRLIVAVRIWRR-NH2] | 82.2 | 93.5 | – | – | – | – | 83.2 | – | – | 16 | 64 | 9.3 | 2
rivrvrairwqv (RIVRVRAIRWQV; HELM PEPTIDE1{[dR].[dI].[dV].[dR].[dV].[dR].[dA].[dI].[dR].[dW].[dQ].[dV].[am]}$$$$V2.0; N-terminus assumed; SMILES CC[C@@H](C)[C@@H](NC(=O)[C@H](N)CCCNC(=N)N)C(=O)N[C@@H](C(=O)N[C@H](CCCNC(=N)N)C(=O)N[C@@H](C(=O)N[C@H](CCCNC(=N)N)C(=O)N[C@H](C)C(=O)N[C@@H](C(=O)N[C@H](CCCNC(=N)N)C(=O)N[C@H](Cc1c[nH]c2ccccc12)C(=O)N[C@H](CCC(N)=O)C(=O)N[C@@H](C(N)=O)C(C)C)[C@H](C)CC)C(C)C)C(C)C) [RI-DJK5] | – | – | – | – | – | – | 76.2 | – | – | – | – | – | –
vqwrrirvwvir (VQWRRIRVWVIR; HELM PEPTIDE1{[dV].[dQ].[dW].[dR].[dR].[dI].[dR].[dV].[dW].[dV].[dI].[dR].[am]}$$$$V2.0; N-terminus assumed; SMILES CC[C@@H](C)[C@@H](NC(=O)[C@@H](CCCNC(=N)N)NC(=O)[C@@H](CCCNC(=N)N)NC(=O)[C@@H](Cc1c[nH]c2ccccc12)NC(=O)[C@@H](CCC(N)=O)NC(=O)[C@H](N)C(C)C)C(=O)N[C@H](CCCNC(=N)N)C(=O)N[C@@H](C(=O)N[C@H](Cc1c[nH]c2ccccc12)C(=O)N[C@@H](C(=O)N[C@@H](C(=O)N[C@H](CCCNC(=N)N)C(N)=O)[C@H](C)CC)C(C)C)C(C)C) [DJK6] | 83.5 | – | – | – | – | – | 58.8 | – | – | – | – | – | –
